Measurements: EP4813991A1 (iLeadBMS Co., Ltd., priority 2023, dated 2025)
Like-named read-outs stand apart in the source and are kept apart here.

Experiments:
CDK12 [1] = target: T1, CDK12 (Homo sapiens, UniProt Q9NYV4); experiment: Cellular CDK12 inhibitory activity assay (Ser2 phosphorylation of RNA polymerase II subunit B1 CTD in MDA-MB-231 cells); type: cell-based; parameters: using MDA-MB-231 breast cancer cells; endogenous in cells; host or cells: MDA-MB-231; settings: MDA-MB-231 cells, 6 hours treatment; read-out: pRpbl CTD S2 IC50
In short: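 MDA-MB-231 cells in L-15 with 10 % FBS were treated with compound at 9 concentrations for 6 h at 37 °C, 0 % CO2. In-Cell Western read phospho-Ser2 and total RNA polymerase II CTD on a Li-COR Odyssey; IC50 from 4-parameter dose-response fit.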

CDK12 [2] = target: T1, CDK12; experiment: CDK12 kinase inhibitory activity assay (33P-ATP filter binding); type: biochemical; settings: kinase reaction 120 minutes, 33P-gamma-ATP; read-out: CDK12 IC50
In short: (§1)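 Compound in 9 concentrations pre-incubated 20 min with kinase and substrate, then ^33P-γ-ATP added and reacted 120 min at room temperature. Phosphorylated substrate captured on filter, washed with 0.75 % phosphoric acid and counted; activity as % of DMSO control, IC50 fitted.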

[3] = tested on: MDA-MB-231 breast cancer cells; experiment: Proliferation inhibitory activity assay against MDA-MB-231 breast cancer cells; type: cell-based; settings: Homo sapiens, 72 hours, CellTiter Glo, relative IC50
In short: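 Cells grown in L-15 with 10% FBS at 37 °C, 0% CO2, then exposed next day to compounds at 9 concentrations (DMSO vehicle) for 72 h. Viability read by CellTiter Glo luminescence; relative IC50 from dose-response curve fit.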

CDK2 = CDK2 (Homo sapiens, UniProt P24941); experiment: CDK2 kinase inhibitory activity assay and selectivity over CDK12; type: biochemical; settings: for IC50: kinase reaction 120 minutes, 33P-gamma-ATP; for CDK2/CDK12: ratio of CDK2 IC50 to CDK12 IC50
Procedure: (§2) Before initiating the CDK1 and CDK2 kinase reactions, each Example compound was dissolved and diluted in DMSO as a solvent across 9 concentration ranges at room temperature. The diluted solutions were then incubated with a mixture of kinase and substrate (and cofactors, if required) for 20 minutes. Next, radioisotope-labeled ATP (^33P-gamma-ATP) was added to proceed with the kinase reaction at room temperature for 120 minutes. After the reaction was completed, the reaction mixture was transferred to a filter paper that binds the radioisotope-labeled catalytic product (^33P-substrate). Unreacted ^33P-ATP was removed by washing with 0.75 % phosphoric acid, and then the radioactive phosphorylated substrate remaining on the filter paper was measured. Kinase activity data were expressed as a percentage of the kinase activity remaining in the test sample compared to a DMSO control group. The half-maximal inhibitory concentration (IC50) for each kinase was calculated using Prism software.
(§3) The CDK1 and CDK2 kinase inhibitory activities of the Example compounds measured by the above method were evaluated according to the following criteria, and the results are presented in Table 14.

CDK1 = CDK1 (Homo sapiens, UniProt P06493); experiment: CDK1 kinase inhibitory activity assay and selectivity over CDK12; type: biochemical; settings: for IC50: kinase reaction 120 minutes, 33P-gamma-ATP; for CDK1/CDK12: ratio of CDK1 IC50 to CDK12 IC50
Procedure: as §2, §3

CDK13 = CDK13 (Homo sapiens, UniProt Q14004); experiment: CDK13 kinase inhibitory activity assay (33P-ATP filter binding); type: biochemical
In short: as §1

[4] = kinase reaction 120 minutes, 33P-gamma-ATP, read-out: CDK13 IC50

Chain of CDK13 (Q14004 whole entry, species assumed): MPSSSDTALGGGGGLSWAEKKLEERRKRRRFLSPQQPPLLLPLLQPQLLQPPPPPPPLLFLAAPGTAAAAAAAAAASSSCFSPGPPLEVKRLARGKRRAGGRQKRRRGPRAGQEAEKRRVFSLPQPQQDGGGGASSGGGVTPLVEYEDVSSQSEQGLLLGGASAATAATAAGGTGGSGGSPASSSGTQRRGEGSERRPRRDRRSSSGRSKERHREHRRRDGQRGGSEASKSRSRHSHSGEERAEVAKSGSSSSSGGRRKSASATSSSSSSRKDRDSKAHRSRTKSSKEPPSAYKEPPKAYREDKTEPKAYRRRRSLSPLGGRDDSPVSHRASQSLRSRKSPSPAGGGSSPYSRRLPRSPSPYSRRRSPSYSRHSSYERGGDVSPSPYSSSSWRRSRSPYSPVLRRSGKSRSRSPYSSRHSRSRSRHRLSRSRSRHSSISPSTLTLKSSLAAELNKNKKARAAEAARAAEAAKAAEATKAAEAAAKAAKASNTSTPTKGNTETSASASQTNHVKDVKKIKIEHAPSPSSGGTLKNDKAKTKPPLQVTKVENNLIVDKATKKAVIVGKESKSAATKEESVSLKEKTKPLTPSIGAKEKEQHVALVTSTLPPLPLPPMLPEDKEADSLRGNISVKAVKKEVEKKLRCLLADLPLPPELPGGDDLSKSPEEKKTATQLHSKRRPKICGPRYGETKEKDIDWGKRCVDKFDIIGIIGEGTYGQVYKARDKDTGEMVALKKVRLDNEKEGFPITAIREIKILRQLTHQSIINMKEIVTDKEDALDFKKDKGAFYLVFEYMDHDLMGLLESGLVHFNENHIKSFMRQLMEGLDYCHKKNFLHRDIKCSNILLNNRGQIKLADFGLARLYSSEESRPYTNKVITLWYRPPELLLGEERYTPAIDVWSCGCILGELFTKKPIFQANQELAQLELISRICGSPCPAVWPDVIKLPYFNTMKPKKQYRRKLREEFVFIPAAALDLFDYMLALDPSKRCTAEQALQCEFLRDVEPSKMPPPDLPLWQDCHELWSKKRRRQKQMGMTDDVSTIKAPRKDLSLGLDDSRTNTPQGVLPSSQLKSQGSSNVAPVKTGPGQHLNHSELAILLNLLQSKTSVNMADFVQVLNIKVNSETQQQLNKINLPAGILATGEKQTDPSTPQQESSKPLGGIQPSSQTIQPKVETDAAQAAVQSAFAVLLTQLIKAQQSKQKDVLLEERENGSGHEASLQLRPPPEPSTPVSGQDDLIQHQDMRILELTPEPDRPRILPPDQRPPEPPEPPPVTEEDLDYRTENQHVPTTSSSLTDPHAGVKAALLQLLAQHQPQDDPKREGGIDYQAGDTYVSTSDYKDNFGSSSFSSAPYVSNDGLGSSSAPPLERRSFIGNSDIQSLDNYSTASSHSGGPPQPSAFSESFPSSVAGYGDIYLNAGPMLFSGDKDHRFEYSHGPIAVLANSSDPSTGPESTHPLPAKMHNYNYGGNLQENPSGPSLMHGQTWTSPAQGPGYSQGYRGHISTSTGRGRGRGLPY
Chain of CDK13 (O75909 whole entry partner, species assumed): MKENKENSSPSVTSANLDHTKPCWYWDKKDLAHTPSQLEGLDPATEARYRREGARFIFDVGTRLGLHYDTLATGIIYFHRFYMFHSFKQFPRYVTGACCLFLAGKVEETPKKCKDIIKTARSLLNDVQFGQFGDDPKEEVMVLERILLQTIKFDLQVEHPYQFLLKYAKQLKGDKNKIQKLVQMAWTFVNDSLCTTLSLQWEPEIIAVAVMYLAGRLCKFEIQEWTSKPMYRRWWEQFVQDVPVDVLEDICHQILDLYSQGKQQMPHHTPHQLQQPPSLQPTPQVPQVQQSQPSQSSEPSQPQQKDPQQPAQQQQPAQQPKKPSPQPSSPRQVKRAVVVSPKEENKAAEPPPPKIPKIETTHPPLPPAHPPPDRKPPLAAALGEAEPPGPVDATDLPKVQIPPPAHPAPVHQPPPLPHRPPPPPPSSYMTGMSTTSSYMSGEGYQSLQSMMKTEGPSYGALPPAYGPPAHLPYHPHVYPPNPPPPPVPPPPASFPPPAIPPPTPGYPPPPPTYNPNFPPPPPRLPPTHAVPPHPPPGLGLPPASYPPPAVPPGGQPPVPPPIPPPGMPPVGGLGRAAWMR
T1 sequence (Q9NYV4 whole entry, species assumed): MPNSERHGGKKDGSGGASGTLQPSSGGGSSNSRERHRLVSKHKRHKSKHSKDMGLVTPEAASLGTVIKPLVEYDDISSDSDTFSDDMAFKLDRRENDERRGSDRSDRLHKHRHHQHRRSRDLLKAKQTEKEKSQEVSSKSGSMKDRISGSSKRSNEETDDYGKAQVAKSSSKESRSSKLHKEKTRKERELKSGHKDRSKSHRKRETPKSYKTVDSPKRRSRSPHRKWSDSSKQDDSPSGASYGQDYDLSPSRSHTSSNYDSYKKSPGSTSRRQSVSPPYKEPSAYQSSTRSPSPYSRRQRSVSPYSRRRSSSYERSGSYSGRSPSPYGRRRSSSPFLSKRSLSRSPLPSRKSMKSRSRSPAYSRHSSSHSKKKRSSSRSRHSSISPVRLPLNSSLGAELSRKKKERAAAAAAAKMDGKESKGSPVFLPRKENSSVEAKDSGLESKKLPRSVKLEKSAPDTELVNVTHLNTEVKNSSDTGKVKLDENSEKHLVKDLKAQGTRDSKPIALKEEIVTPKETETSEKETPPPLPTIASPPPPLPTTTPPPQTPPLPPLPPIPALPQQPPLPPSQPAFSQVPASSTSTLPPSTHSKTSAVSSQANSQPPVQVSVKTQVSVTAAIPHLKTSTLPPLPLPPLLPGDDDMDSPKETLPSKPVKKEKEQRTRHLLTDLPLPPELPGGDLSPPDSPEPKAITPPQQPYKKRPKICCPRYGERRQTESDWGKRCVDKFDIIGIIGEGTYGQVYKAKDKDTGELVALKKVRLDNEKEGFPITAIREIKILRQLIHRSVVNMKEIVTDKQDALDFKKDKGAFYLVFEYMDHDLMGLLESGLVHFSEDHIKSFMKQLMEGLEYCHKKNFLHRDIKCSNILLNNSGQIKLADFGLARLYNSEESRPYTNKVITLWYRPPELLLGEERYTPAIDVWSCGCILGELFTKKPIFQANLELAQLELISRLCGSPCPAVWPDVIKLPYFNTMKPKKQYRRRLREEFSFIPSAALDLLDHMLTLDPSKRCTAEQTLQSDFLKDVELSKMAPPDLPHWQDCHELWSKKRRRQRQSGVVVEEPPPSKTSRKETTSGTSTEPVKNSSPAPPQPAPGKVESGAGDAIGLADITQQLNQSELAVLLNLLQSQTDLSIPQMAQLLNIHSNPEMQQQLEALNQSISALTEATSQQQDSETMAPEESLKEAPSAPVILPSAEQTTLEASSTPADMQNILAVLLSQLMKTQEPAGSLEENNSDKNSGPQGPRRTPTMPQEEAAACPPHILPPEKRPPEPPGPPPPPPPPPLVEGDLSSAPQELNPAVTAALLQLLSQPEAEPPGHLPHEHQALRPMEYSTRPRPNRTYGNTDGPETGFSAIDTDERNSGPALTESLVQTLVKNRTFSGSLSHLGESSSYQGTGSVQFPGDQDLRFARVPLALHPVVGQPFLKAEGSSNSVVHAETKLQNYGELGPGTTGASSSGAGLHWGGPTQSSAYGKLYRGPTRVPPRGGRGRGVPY
T1 sequence (O75909 whole entry partner, species assumed): as the sequence (O75909 whole entry partner, species assumed) above
Chain of CDK1 (P06493 whole entry, species assumed): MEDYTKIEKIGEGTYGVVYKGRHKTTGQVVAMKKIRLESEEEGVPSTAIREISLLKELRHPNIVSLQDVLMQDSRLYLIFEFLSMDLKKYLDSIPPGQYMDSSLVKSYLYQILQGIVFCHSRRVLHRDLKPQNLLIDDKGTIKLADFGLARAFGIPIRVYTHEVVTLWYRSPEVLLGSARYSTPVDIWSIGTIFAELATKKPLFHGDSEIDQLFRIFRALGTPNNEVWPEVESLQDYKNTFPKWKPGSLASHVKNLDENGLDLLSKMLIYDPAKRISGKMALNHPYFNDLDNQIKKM
Chain of CDK1 (P14635 whole entry partner, species assumed): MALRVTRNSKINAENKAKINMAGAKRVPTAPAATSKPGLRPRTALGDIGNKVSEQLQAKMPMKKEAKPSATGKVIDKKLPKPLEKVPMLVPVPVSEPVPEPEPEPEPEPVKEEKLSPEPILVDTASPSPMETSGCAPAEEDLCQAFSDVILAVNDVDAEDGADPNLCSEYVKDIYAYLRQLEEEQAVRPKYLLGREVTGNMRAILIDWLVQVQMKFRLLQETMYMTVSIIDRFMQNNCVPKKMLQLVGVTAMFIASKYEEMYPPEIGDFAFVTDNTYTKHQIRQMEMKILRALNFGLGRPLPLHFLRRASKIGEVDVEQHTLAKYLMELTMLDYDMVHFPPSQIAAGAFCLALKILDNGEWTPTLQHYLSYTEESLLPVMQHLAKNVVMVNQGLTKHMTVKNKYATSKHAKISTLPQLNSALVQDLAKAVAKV

Row | IC50 (CDK12 [1]) | IC50 (CDK12 [2]) | IC50 [3] | IC50 (CDK2) | IC50 (CDK1) | IC50 (CDK13; [4]) | Structure (SMILES) | CDK2/CDK12 (CDK2) | CDK1/CDK12 (CDK1) | IC50 (CDK13)
1 | < 300 nM | < 100 nM | ≤ 50 nM | > 1000 nM | > 1000 nM | < 100 nM | Fc1cccc2[nH]c(CNc3cc(N4CCOCC4)nn4c(C(F)(F)F)cnc34)nc12 [Example 76, N-((4-fluoro-1H-benzo[d]imidazol-2-yl)methyl)-6-morpholino-3-(trifluoromethyl)imidazo[1,2-b]pyridazin-8-amine] | A (CDK1/CDK12 or CDK2/CDK12 > 500-fold) | A (CDK1/CDK12 or CDK2/CDK12 > 500-fold) | 
2 | < 300 nM | < 100 nM | ≤ 50 nM | > 1000 nM | > 1000 nM | < 100 nM | NC1CCN(c2cc(NCc3nc4ccc(F)c(F)c4[nH]3)c3ncc(C(F)(F)F)n3n2)CC1 [Example 18] | A (CDK1/CDK12 or CDK2/CDK12 > 500-fold) | A (CDK1/CDK12 or CDK2/CDK12 > 500-fold) | 
3 | < 300 nM | < 100 nM | ≤ 50 nM | > 1000 nM | > 1000 nM | < 100 nM | Nc1ncc(-c2cc(NCc3nc4ccc(F)c(F)c4[nH]3)c3ncc(C(F)(F)F)n3n2)cn1 [Example 35] | B (100-fold < CDK1/CDK12 or CDK2/CDK12 ≤ 500-fold) | A (CDK1/CDK12 or CDK2/CDK12 > 500-fold) | 
4 | 300 to 3000 nM | < 100 nM | ≤ 50 nM | > 1000 nM | > 1000 nM |  | OC1CCN(c2cc(NCc3nc4ccc(F)c(F)c4[nH]3)c3ncc(C(F)(F)F)n3n2)CC1 [Example 19, 1-(8-(((6,7-difluoro-1H-benzo[d]imidazol-2-yl)methyl)amino)-3-(trifluoromethyl)imidazo[1,2-b]pyridazin-6-yl)piperidin-4-ol] | A (CDK1/CDK12 or CDK2/CDK12 > 500-fold) | A (CDK1/CDK12 or CDK2/CDK12 > 500-fold) | < 100 nM
5 | < 300 nM | < 100 nM | ≤ 50 nM | > 1000 nM | > 1000 nM | < 100 nM | CN1CC2(C1)CN(c1cc(NCc3nc4cc(Cl)c(Cl)cc4[nH]3)c3ncc(C(F)(F)F)n3n1)C2 [Example 46, N-((5,6-dichloro-1H-benzo[d]imidazol-2-yl)methyl)-6-(6-methyl-2,6-diazaspiro[3.3]heptan-2-yl)-3-(trifluoromethyl)imidazo[1,2-b]pyridazin-8-amine] | B (100-fold < CDK1/CDK12 or CDK2/CDK12 ≤ 500-fold) |  | 
6 | 300 to 3000 nM | < 100 nM | ≤ 50 nM | > 1000 nM | > 1000 nM | < 100 nM | OC1CN(c2cc(NCc3nc4ccc(F)c(F)c4[nH]3)c3ncc(C(F)(F)F)n3n2)C1 [Example 16, 1-(8-(((6,7-difluoro-1H-benzo[d]imidazol-2-yl)methyl)amino)-3-(trifluoromethyl)imidazo[1,2-b]pyridazin-6-yl)azetidin-3-ol] | C (CDK1/CDK12 or CDK2/CDK12 ≤ 100-fold) | B (100-fold < CDK1/CDK12 or CDK2/CDK12 ≤ 500-fold) | 
7 | 300 to 3000 nM | < 100 nM | 50 to 500 nM | > 1000 nM | > 1000 nM | < 100 nM | FC(F)(F)c1cnc2c(NCc3nc4ccccc4[nH]3)cc(N3CCOCC3)nn12 [Example 69, N-((1H-benzo[d]imidazol-2-yl)methyl)-6-morpholino-3-(trifluoromethyl)imidazo[1,2-b]pyridazin-8-amine] | B (100-fold < CDK1/CDK12 or CDK2/CDK12 ≤ 500-fold) | B (100-fold < CDK1/CDK12 or CDK2/CDK12 ≤ 500-fold) | 
8 | < 300 nM | < 100 nM | ≤ 50 nM | > 1000 nM | > 1000 nM | < 100 nM | COc1cc2nc(CNc3cc(N4CCOCC4)nn4c(C(F)(F)F)cnc34)[nH]c2cc1Cl [Example 71, N-((6-chloro-5-methoxy-1H-benzo[d]imidazol-2-yl)methyl)-6-morpholino-3-(trifluoromethyl)imidazo[1,2-b]pyridazin-8-amine] | B (100-fold < CDK1/CDK12 or CDK2/CDK12 ≤ 500-fold) | B (100-fold < CDK1/CDK12 or CDK2/CDK12 ≤ 500-fold) | 
9 | 300 to 3000 nM | < 100 nM | ≤ 50 nM | > 1000 nM | > 1000 nM | < 100 nM | COc1cccc2[nH]c(CNc3cc(N4CCOCC4)nn4c(C(F)(F)F)cnc34)nc12 [Example 73, N-((4-methoxy-1H-benzo[d]imidazol-2-yl)methyl)-6-morpholino-3-(trifluoromethyl)imidazo[1,2-b]pyridazin-8-amine] | A (CDK1/CDK12 or CDK2/CDK12 > 500-fold) | A (CDK1/CDK12 or CDK2/CDK12 > 500-fold) | 
10 | < 300 nM | < 100 nM | 50 to 500 nM | > 1000 nM | > 1000 nM | < 100 nM | Cc1ccnc2[nH]c(CNc3cc(N4CCOCC4)nn4c(C(F)(F)F)cnc34)nc12 [Example 75, N-((7-methyl-3H-imidazo[4,5-b]pyridin-2-yl)methyl)-6-morpholino-3-(trifluoromethyl)imidazo[1,2-b]pyridazin-8-amine] | A (CDK1/CDK12 or CDK2/CDK12 > 500-fold) | A (CDK1/CDK12 or CDK2/CDK12 > 500-fold) | 

Row | Structure (SMILES) | IC50 (CDK12 [1]) | IC50 (CDK12 [2]) | IC50 [3] | IC50 (CDK2) | IC50 (CDK1) | IC50 (CDK13; [4]) | CDK2/CDK12 (CDK2) | CDK1/CDK12 (CDK1) | IC50 (CDK13)
11 | Fc1ccc2nc(CNc3cc(N4C5CCC4COC5)nn4c(C(F)(F)F)cnc34)[nH]c2c1F [Example 7, 6-(3-oxa-8-azabicyclo[3.2.1]octan-8-yl)-N-((6,7-difluoro-1H-benzo[d]imidazol-2-yl)methyl)-3-(trifluoromethyl)imidazo[1,2-b]pyridazin-8-amine] | < 300 nM | 100 to 500 nM | ≤ 50 nM | > 1000 nM | > 1000 nM |  | C (CDK1/CDK12 or CDK2/CDK12 ≤ 100-fold) | C (CDK1/CDK12 or CDK2/CDK12 ≤ 100-fold) | < 100 nM
12 | Fc1ccc2nc(CNc3cc(N4C5CCC4CNC5)nn4c(C(F)(F)F)cnc34)[nH]c2c1F [Example 11, 6-(3,8-diazabicyclo[3.2.1]octan-8-yl)-N-((6,7-difluoro-1H-benzo[d]imidazol-2-yl)methyl)-3-(trifluoromethyl)imidazo[1,2-b]pyridazin-8-amine] | < 300 nM | < 100 nM | ≤ 50 nM | 100 to 1000 nM | 100 to 1000 nM | < 100 nM | B (100-fold < CDK1/CDK12 or CDK2/CDK12 ≤ 500-fold) | B (100-fold < CDK1/CDK12 or CDK2/CDK12 ≤ 500-fold) | 
13 | CN1CC2CCC(C1)N2c1cc(NCc2nc3ccc(F)c(F)c3[nH]2)c2ncc(C(F)(F)F)n2n1 [Example 13] | < 300 nM | < 100 nM | ≤ 50 nM | > 1000 nM | > 1000 nM | < 100 nM | B (100-fold < CDK1/CDK12 or CDK2/CDK12 ≤ 500-fold) | A (CDK1/CDK12 or CDK2/CDK12 > 500-fold) | 
14 | OC1CC2CCC(C1)N2c1cc(NCc2nc3ccc(F)c(F)c3[nH]2)c2ncc(C(F)(F)F)n2n1 (stereo not drawn) [Example 14, 8-(8-(((6,7-difluoro-1H-benzo[d]imidazol-2-yl)methyl)amino)-3-(trifluoromethyl)imidazo[1,2-b]pyridazin-6-yl)-8-azabicyclo[3.2.1]octan-3-ol] | < 300 nM | 100 to 500 nM | ≤ 50 nM | 100 to 1000 nM | > 1000 nM | < 100 nM | C (CDK1/CDK12 or CDK2/CDK12 ≤ 100-fold) | C (CDK1/CDK12 or CDK2/CDK12 ≤ 100-fold) | 
